Measurements published in PMC12282428 (Virologica Sinica, 2025).

Biological target: T1, PEDV RdRp (Nsp12) (Porcine epidemic diarrhea virus, UniProt K4NS01)
T1 sequence (K4NS01 4101-5027): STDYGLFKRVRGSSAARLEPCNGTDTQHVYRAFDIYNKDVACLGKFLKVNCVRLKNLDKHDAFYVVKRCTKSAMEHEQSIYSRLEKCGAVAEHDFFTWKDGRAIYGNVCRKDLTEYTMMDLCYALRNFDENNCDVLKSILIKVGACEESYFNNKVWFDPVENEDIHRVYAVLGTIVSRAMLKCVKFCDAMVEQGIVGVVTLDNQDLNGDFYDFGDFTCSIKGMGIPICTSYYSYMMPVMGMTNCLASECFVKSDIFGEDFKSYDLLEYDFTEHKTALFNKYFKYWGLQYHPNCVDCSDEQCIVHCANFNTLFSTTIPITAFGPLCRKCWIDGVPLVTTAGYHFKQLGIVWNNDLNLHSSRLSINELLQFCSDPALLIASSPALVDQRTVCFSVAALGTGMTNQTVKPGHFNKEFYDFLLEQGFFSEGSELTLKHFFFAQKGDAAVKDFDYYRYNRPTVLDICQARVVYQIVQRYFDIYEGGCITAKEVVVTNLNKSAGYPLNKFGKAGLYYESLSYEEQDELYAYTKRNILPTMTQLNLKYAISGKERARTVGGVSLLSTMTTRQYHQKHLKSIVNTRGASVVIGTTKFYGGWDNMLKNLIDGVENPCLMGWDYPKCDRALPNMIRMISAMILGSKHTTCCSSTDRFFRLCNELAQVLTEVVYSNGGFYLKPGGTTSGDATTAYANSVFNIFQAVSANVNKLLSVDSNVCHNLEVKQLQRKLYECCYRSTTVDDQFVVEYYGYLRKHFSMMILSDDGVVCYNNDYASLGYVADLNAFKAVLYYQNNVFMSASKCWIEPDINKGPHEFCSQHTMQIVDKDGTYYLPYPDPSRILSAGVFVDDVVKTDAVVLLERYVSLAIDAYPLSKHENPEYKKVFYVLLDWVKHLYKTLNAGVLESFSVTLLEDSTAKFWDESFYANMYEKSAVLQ
Experiment: CoV-RdRp-Gluc luciferase reporter assay in transfected HEK-293T cells
Assay type: cell-based

CC(C)/N=c1\cc2n(-c3ccc(Cl)cc3)c3ccccc3nc-2cc1Nc1ccc(Cl)cc1 [clofazimine] was tested, and the IC50 was 136 nM.
